Literature values in patent publication US20180250285A1 (Teva Pharmaceutical Industries Ltd., priority 2012, published 2018).

How the values were obtained:
[1] = in vivo
[2] = system: Huntington's disease patients
[3] = system: patients with HD

| Compound | oral bioavailability [1] | tertiary endpoint UHDRS-TMS (changes in motor function) and individual items within the mMS (gait, dysarthria) ([2]; 45 mg daily or 45 mg twice daily for 6 months) | primary endpoint: effect on a specific subset of motor symptoms defined in the mMS ([2]; at 26 weeks, 45 mg daily or 45 mg twice daily) | symptomatic relief incl. improved hand movements, gait and balance [3] |
| --- | --- | --- | --- | --- |
| CCN(C(=O)c1c(O)c2c(Cl)cccc2n(C)c1=O)c1ccccc1 [Laquinimod] | high | – | – | – |
| CCCN1CCC(c2cccc(S(C)(=O)=O)c2)CC1 [pridopidine, 4-[3-(methylsulfonyl)phenyl]-1-propyl-piperidine] | – | statistically significant effect of treatment | not met | significant symptomatic relief |
